Values quoted from earlier work, collected in patent US20190343827A1, “DEUTERATED ANALOGS OF TARIQUIDAR” (Izumi Technology, LLC, priority 2018, published 2019).

Tests used:
[1] = test system: non-small-cell lung cancer; settings: co-administration with paclitaxel or carboplatin
[2] = patients with lung, ovarian and cervical cancer

clearance of docetaxel and vinorelbine (refractory solid tumors; co-administered with tariquidar, compared to historic data in absence of tariquidar): reduced
docetaxel disposition as a result of tariquidar co-administration [2]: No significant differences
Structure (SMILES): COc1cc2c(cc1OC)CN(CCc1ccc(NC(=O)c3cc(OC)c(OC)cc3NC(=O)c3cnc4ccccc4c3)cc1)CC2 [Tariquidar, N-[2-[[4-[2-(6,7-dimethoxy-3,4-dihydro-1H-isoquinolin-2-yl)ethyl]phenyl]carbamoyl]-4,5-dimethoxyphenyl]quinoline-3-carboxamide]
clinical response (refractory solid tumors; children and adolescents with refractory solid tumors, 29 patients): low
complete response, number of patients (refractory solid tumors; out of 29 patients): one
partial response, number of patients (refractory solid tumors; out of 29 patients): two
study outcome, toxicity [1]: terminated early due to toxicity
